Where two headings read alike, the source gives them in different places.

The text below walks through data of publication PMC5458272.

The target in one assay is T1, Aurora-A/TPX2 complex (Homo sapiens, UniProt O14965).
T1 construct: His-tag (N); host or cells: Escherichia coli BL21(DE3)
T1 sequence (O14965 1-403): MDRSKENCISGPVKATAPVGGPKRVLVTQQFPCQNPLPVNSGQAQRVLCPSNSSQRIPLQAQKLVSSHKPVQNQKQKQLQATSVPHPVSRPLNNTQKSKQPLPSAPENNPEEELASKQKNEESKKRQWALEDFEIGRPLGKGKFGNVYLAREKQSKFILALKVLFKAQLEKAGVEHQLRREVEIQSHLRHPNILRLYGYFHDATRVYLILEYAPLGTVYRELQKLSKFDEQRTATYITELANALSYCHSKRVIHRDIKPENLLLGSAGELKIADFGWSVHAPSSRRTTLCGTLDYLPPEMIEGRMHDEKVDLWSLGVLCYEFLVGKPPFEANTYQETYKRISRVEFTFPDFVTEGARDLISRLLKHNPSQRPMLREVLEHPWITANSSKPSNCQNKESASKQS
Kind of assay: SPR competition between GST-TPX2-1-43 and compounds for Aurora-A binding. The following applies: for Interference with TPX2 binding to Aurora-A (in words): SPR competition.

The target in assay [1] is T2, Aurora-A (Homo sapiens, UniProt O14965).
T2 sequence (O14965 1-403): T1 sequence (O14965 1-403)
As to the kind of experiment: FastStep SPR direct binding of compounds to immobilized Aurora-A. Details: His-tag (N); host or cells: Escherichia coli BL21(DE3). The following applies: for Kd: SPR, Aurora-A immobilized on COOH5 sensorchip, affinities from Scatchard plots, ± standard error of best-fit, low affinity given as >100 μM. As for the experimental part: We evaluated the interaction of the selected compounds with Aurora-A immobilized on a COOH5 sensorchip by FastStep Surface Plasmon Resonance (SPR) experiments. Sensorgrams were obtained using Aurora-A as ligand and injecting increasing concentrations of the inhibitors (see Materials and Methods) as analytes in running buffer (Figure 3A).
SPR experiments were carried out using a SensiQ Pioneer apparatus. The sensor chip (COOH5, with a hydrogel-based sensing surface endowed with high binding capacity) was chemically activated by a 35 μl injection of a 1:1 mixture of 200 mM N-ethyl-N’-(3-[…]) carbodiimide and 50 mM N-hydroxysuccinimide at a flow rate of 5 μl/min. Aurora-A was immobilized on the activated sensor chip via amine coupling. The immobilization was carried out in 20 mM sodium acetate at pH 4.5; the remaining ester groups were blocked by injecting 1 M ethanolamine hydrochloride (35 μl).
Compounds for testing were purchased from Ambinter (Paris, France). […] Compounds were injected onto the sensor chip at a constant flow in FastStep injection experiments, in order to rapidly obtain information on the binding of the analyte at different concentrations, with a single dissociation phase. […] At least two independent experiments were performed and averaged for each series of injections. The interaction of immobilized Aurora-A ligand with the inhibitor compounds was detected through mass concentration-dependent changes in the refractive index on the sensor chip surface, expressed as RUs.

The test system of assay [2] is U2OS osteosarcoma cell line. Kind of assay: Immunofluorescence of mitotic spindle structure in synchronized U2OS cells. It is filed as cell-based, human. The following applies: 10 μM, added 6 hours after thymidine release, fixed after further 4 hours, alpha-tubulin staining. As to the method: (§1) We next wished to examine how compounds displaying inhibitory activity on the Aurora-A/TPX2 complex formation in vitro affected mitosis in human cells. […] C20 and C23 were tested in the U2OS osteosarcoma cell line, in which we previously characterized significant mitotic defects after Alisertib-dependent Aurora-A inhibition. Briefly, U20S cells were arrested at the G1/S transition by thymidine treatment, released in fresh medium to progress through S and G2 phases, then treated with either C20 or C23 (10 μM) 6 hours after thymidine release (Figure 6A). […] Defects were scored in prometa- and metaphases and included completely disorganized spindles (Figure 6A, second panel), or spindles with supernumerary poles (Figure 6A, third and fourth panel), as typically observed under impaired Aurora-A function. To directly assess the extent of Aurora-A activation we measured Aurora-A auto-phosphorylation on Thr 288. […]
(§2) The human U2OS osteosarcoma cell line (ATCC: HTB-96) was grown at 37°C in a 5% CO2 atmosphere in DMEM, supplemented with 10% fetal bovine serum. […] After further 4 hours cells were harvested and analyzed. […]
(§3) Cells grown on poly-lysine-coated coverslips were fixed with cold methanol, 6 min at -20°C. […] Samples were analyzed using a Nikon Eclipse 90i microscope equipped with a Qicam Fast 1394 CCD camera (QImaging). […]

The subject of a further assay is p-Thr288-Aurora-A. As to the kind of experiment: Immunofluorescence of Aurora-A auto-phosphorylation on Thr 288 in U2OS prometaphases. It is filed as cell-based, human. The following applies: thymidine arrest/release, monastrol added 2 hours before fixation. As for the experimental part:
as §1, §2, §3

Assay [3] concerns the target T2, Aurora-A. As to the kind of experiment: SPR binding of GST-TPX2-1-43 or GST alone to immobilized Aurora-A. The following applies: GST alone as control analyte. Background: Surface plasmon resonance follows binding to a sensor surface in real time, without labels.
Procedure: (§4) TPX2 in running buffer was injected at different concentrations (ranging from 10 nM to 5 μM), in order to determine the affinity constant of the interaction between Aurora-A and TPX2 and the conditions of the competition experiments (flow rate= 30 μl/min). […] IC50 were calculated on the basis of the RU value at each inhibitor concentration (10 sec after the end of each association sensorgram) since TPX2 binding signal decreases by increasing inhibitor concentration. Both rapid binding and rapid dissociation of inhibitors were subtracted from the sensorgrams.

Procedure for Aurora-A/TPX2 complex: as §4

Turning to `COc1cc(Nc2ncc3c(n2)-c2ccc(Cl)cc2C(c2c(F)cccc2OC)=NC3)ccc1C(=O)O` [Alisertib, reference compound], the “Interference with TPX2 binding to Aurora-A (in words)” value (shortened to “Interference with TPX2 binding”) is reported as “does not interfere with TPX2 binding to Aurora-A” on Aurora-A/TPX2 complex (500 nM GST-TPX2-1-43, Supplementary Figure 2) and “does not compete with TPX2 binding” at Aurora-A/TPX2 complex (1 μM GST-TPX2-1-43). Usually Kd stands for the free concentration of one partner at which half of the binding sites on the other are occupied at equilibrium, for simple one-to-one binding. On Aurora-A [1] (Kd), `O=C1Nc2ccccc2/C1=N\NC(=O)c1cccc2ccccc12` [C01] gave an equilibrium dissociation constant (Kd) of over 100 µM. As a reminder, the IC50 is the concentration needed to halve the response being measured. Take `O=C1Nc2ccccc2/C1=N/NC(=O)c1ccc2ccccc2n1` [C02]: at Aurora-A [1] (read-out: Kd), the dissociation constant (Kd) amounted to 42 ± 9 µM. Further, the half-inhibitory concentration (IC50) on Aurora-A/TPX2 complex (read-out: IC50) was found to be 40 ± 10 µM.

For `O=C(Nc1cccc2ncccc12)c1ccc2c(c1)OCCCO2` [C03], the Kd on Aurora-A [1] (Kd) was over 100 µM. Molecule `O=C1Nc2ccccc2/C1=N\NC(=O)C1COc2ccccc2O1` (centres unmarked) [C04] showed a Kd on Aurora-A [1] (Kd) of 100 µM. As to `O=C1Nc2ccc(F)cc2/C1=N\NC(=O)c1ccc2c(c1)OCO2` [C05], the dissociation constant (Kd) on Aurora-A [1] (Kd) is over 100 µM. For `O=C1Cc2cc(S(=O)(=O)Nc3ccccc3C(=O)O)ccc2N1` [C06], the dissociation constant (Kd) on Aurora-A [1] (Kd) was over 100 µM. On the same count and under the same terms, then `Cc1ccc2c(c1)/C(=N\NC(=O)C1COc3ccccc3O1)C(=O)N2` (centres unmarked) [C07], with over 100 µM; and `CN1/C(=C\c2cccc3[nH]ccc23)C(=O)c2ccccc2S1(=O)=O` [C08], with 80 ± 30 µM. Same read-out and setting: then `Cc1oc2cc(OCC(N)=O)ccc2c(=O)c1-c1ccc(Cl)cc1` [C09], with 80 ± 15 µM; and `CNC(=O)C1CN(C(=O)c2ccc3ccccc3c2)c2ccccc2O1` (centres unmarked) [C10], with over 100 µM; and `O=C(NCC1Cc2cccc(-c3ccncc3)c2O1)c1ccccc1F` (centres unmarked) [C11], with over 100 µM. In the case of `O=C(Nc1ccc2c(c1)CN(C(=O)c1ccco1)CC2)c1ccc(-c2ccccc2)cc1` [C12], the Kd at Aurora-A [1] (Kd) is over 100 µM. For the same molecule, the “Aurora-A binding (in words)” value on Aurora-A [1] (SPR direct binding) was “no Aurora-A binding properties”. Further, the 50% inhibitory concentration (IC50) at Aurora-A/TPX2 complex was over 100 µM. In addition, on Aurora-A/TPX2 complex (1 μM GST-TPX2-1-43), the “Interference with TPX2 binding” value was “did not influence the Aurora-A/TPX2 complex formation”. At Aurora-A [1] (Kd), `CCn1c(NC(=O)CCn2c(-c3ccc(OC)cc3)n[nH]c2=S)nc2ccccc21` [C13] showed an equilibrium dissociation constant (Kd) of over 100 µM. The molecule `O=C(NCCOc1ccc(-c2ccc(F)cc2)nn1)C1c2ccccc2Oc2ccccc21` [C14] gave a Kd at Aurora-A [1] (Kd) of over 100 µM.

For the molecule `CC1=NC2=C(C(=O)CC(c3ccccc3)C2)C(c2ccccn2)C1C(=O)Nc1ccc(F)cc1` (centres unmarked) [C15], the equilibrium dissociation constant (Kd) on Aurora-A [1] (Kd) is over 100 µM.

In turn, `CC1=C(C(=O)Nc2cccc(F)c2)[C@H](c2ccccn2)C2=C(C[C@H](c3ccccc3)CC2=O)N1` [C16] returned a Kd on Aurora-A [1] (Kd) of over 100 µM.

As to `CC1=NC2=C(C(=O)CC(c3cccs3)C2)C(c2ccccn2)C1C(=O)Nc1ccc(F)cc1` (centres unmarked) [C17], the dissociation constant Kd on Aurora-A [1] (Kd) was over 100 µM. `CC1=NC2=C(C(=O)CC(c3cccs3)C2)C(c2ccccn2)C1C(=O)Nc1cccc(F)c1` (centres unmarked) [C18]: the Kd on Aurora-A [1] (read-out: Kd) was over 100 µM.

Turning to `COc1cc(/C=C2\C(=O)Nc3ccccc32)c(Br)cc1OCc1ccccc1C#N` [C19], the Kd at Aurora-A [1] (Kd) was over 100 µM. For `COc1cc(NC(=S)NC(=O)c2cccc(F)c2)ccc1NC(=O)c1cc2ccccc2o1` [C20], in assay [2], the “Mitotic spindle defects in prometa- and metaphases” value is “aberrant mitotic spindles”. This molecule showed an equilibrium dissociation constant (Kd) at Aurora-A [1] (Kd) of 30 ± 15 µM. In the assay on p-Thr288-Aurora-A, the “p-Thr288-Aurora-A signal compared to controls” value was “highly significant reduction”. This molecule showed an IC50 on Aurora-A/TPX2 complex of 20 ± 10 µM. On Aurora-A [1] (Kd), `O=C(COc1ccc2[nH]c3ccccc3c(=O)c2c1)N1c2ccccc2OCC1c1ccccc1` (centres unmarked) [C21] yielded a Kd of over 100 µM. As to `CC1=C(/C(O)=N/c2ccc(F)cc2F)[C@H](c2cccnc2)C2=C(C[C@@H](c3ccccc3)CC2=O)N1` [C22], the dissociation constant (Kd) on Aurora-A [1] (read-out: Kd) came out at 15 ± 6 µM. In addition, on Aurora-A/TPX2 complex (1 μM GST-TPX2-1-43), the “Interference with TPX2 binding” value is “did not interfere with the formation of the Aurora-A/TPX2 complex”. Moreover, the IC50 at Aurora-A/TPX2 complex (read-out: IC50) is over 100 µM. For the molecule `COc1ccc(CNC(=O)C(C)Oc2ccc3c(c2)c2ccnc4c5ccccc5c(=O)n3c24)cc1` (centres unmarked) [C23], the “Mitotic spindle defects in prometa- and metaphases” value in assay [2] is “aberrant mitotic spindles”. Moreover, at Aurora-A [1] (read-out: Kd), the equilibrium dissociation constant (Kd) is 12 ± 5 µM. Further, the “p-Thr288-Aurora-A signal compared to controls” value in the assay with p-Thr288-Aurora-A is on record as “highly significant reduction”. Besides, the concentration for half-maximal inhibition (IC50) at Aurora-A/TPX2 complex (read-out: IC50) is 30 ± 8 µM.

For the molecule `COc1ccc(-c2n[nH]c(=S)n2CCC(=O)Nc2ccc3nc(N4CCCC4)sc3c2)cc1` [C24], at Aurora-A [1] (Kd), the equilibrium dissociation constant (Kd) is over 100 µM. On to `CC(Oc1ccc2c(c1)c1ccnc3c4ccccc4c(=O)n2c13)C(=O)NCc1ccc2c(c1)OCO2` (centres unmarked) [C25], for which the Kd on Aurora-A [1] (read-out: Kd) is 12 ± 6 µM. The 50% inhibitory concentration (IC50) on Aurora-A/TPX2 complex (read-out: IC50) was found to be 40 ± 10 µM. The molecule “GST: Recombinant GST protein alone, from Sigma (SRP5348), control analyte” returned a Kd with Aurora-A [3] of over 5 µM.
